Reference: PubChem BioAssay AID1625 (Sanford-Burnham Center for Chemical Genomics, 2009)
Activity calls are given as the source filed them.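 The calls were made as follows: active = z-score above 3 at 5 µM with at least 500 cells counted in the well; inconclusive = wells under 500 cells, flagged as cytotoxic or low count; inactive = the rest.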

Tested on: MIN6 insulin promoter-GFP reporter, high-content imaging
Assay: up-regulation of insulin promoter-GFP reporter – imaging, high-content screening, mouse beta cells (AID 1625)

## CC(=O)Nc1sc(/C(C#N)=C/c2ccc(Cl)c(Cl)c2)nc1-c1ccc(C)cc1
  EC50: > 16 µM (inactive)

## COc1ccc(C(=O)/C=C/c2ccc(N(C)C)cc2)c(OC)c1
  EC50: 6.31 µM

## CN1C2CCC1/C(=C/c1cccn1C)C(=O)/C2=C\c1cccn1C
  EC50: > 16 µM (inactive)

## CCNc1ccc2noc3c2c1C(=O)c1ccccc1-3
  EC50: > 16 µM (inactive)

## N#CC(C#N)=C1C=C2C=C(N3CCOCC3)CCC2CC1 (stereo unspecified)
  EC50: 2.56 µM

## CN1/C(=C/C=C(C#N)C#N)C=Cc2ccccc21
  EC50: > 16 µM (inactive)

## CCN1/C(=C/C=C/c2oc3ccc4ccccc4c3[n+]2CC)Oc2ccc3ccccc3c21
  EC50: < 0.25 µM

## Cc1c2ccccc2nc2c(F)c(NC(C)C)c(F)c(F)c12
  EC50: > 16 µM (inactive)

## Cc1oc(C)c2c(=O)ccc3c(c12)OC(N)=C(C#N)C3c1ccc(F)cc1 (stereo unspecified)
  EC50: > 16 µM (inactive)

## CN1/C(=C\C=C(/C#N)C(=O)Nc2ccccc2F)C(C)(C)c2ccccc21
  EC50: > 16 µM (inactive)

## CCN(CC)c1ccc2cc(C(=O)Nc3ccccn3)c(=O)oc2c1
  EC50: > 16 µM (inactive)

## CCCCNc1ccc2c3c(cccc13)C(=O)N(CCCC)C2=O
  EC50: 1.69 µM

## Nc1c(C(=O)N/N=C/c2cccnc2)oc2nc(-c3ccccc3)cc(-c3ccco3)c12
  EC50: > 16 µM (inactive)

## N#Cc1cccc(NC(=O)CSc2ccc3c4c(cccc24)C(=O)c2ccccc2-3)c1
  EC50: 14.7 µM (inactive)

## CCCCN1C(=O)/C(=C/C=C2\N(C)c3ccccc3C2(C)C)SC1=S
  EC50: 5.6 µM

## N#Cc1c(NC(=S)NC(=O)c2ccccc2)sc2c1CCN(CCc1ccccc1)C2
  EC50: 7.1 µM

## CN1/C(=C\C=C(/C#N)C(=O)Nc2ccc(Cl)cc2)C(C)(C)c2ccccc21
  EC50: > 16 µM (inactive)

## COc1ccc(C(=O)c2sc3nc(-c4ccccc4)ccc3c2N)cc1OC
  EC50: > 16 µM (inactive)

## CN1CC=C2C(C#N)=C(N)C(C#N)(C#N)C(c3ccncc3)C2C1 (stereo unspecified)
  EC50: > 16 µM (inactive)

## Cc1cccc(N=Cc2[nH]c3ccc(Br)c(Cl)c3c2O)c1
  EC50: 4.86 µM

## CN1/C(=C\C=C2/C(=O)Oc3ccccc3C2=O)C(C)(C)c2ccccc21
  EC50: 2.58 µM

## COc1cc2c3nnc(-c4ccc(F)cc4)c-3cn(Cc3ccc(F)cc3)c2cc1OC
  EC50: 5.41 µM

## CN(C)c1ccc(/C=C/C(O)=C2/C(=O)N(C)C3(C)CC2c2ccccc2O3)cc1 (stereo unspecified)
  EC50: > 16 µM (inactive)

## CCOCCCNc1nc2c(C)cccn2c(=O)c1/C=C1\SC(=S)N(CC(C)C)C1=O
  EC50: > 16 µM (inactive)

## COc1cc(OC)c(-c2c3cc(O)c(=O)cc-3oc3cc(O)c(O)cc23)cc1OC
  EC50: 8.54 µM

## O=c1oc2c3c4c(cc2c(C(F)(F)F)c1CCN1CCOCC1)CCCN4CCC3
  EC50: 6.05 µM

## COCCCNc1c2c3c(cccc3[nH]c1=O)C(=O)c1ccccc1-2
  EC50: 4.03 µM

## COc1ccc(NC(=O)/C(C#N)=C\c2ccc(N3CCOCC3)o2)cc1
  EC50: 9.14 µM

## Oc1c(C=NCc2ccc(F)cc2)[nH]c2ccc(Br)c(Cl)c12
  EC50: > 16 µM (inactive)

## CC(=O)c1c(N2CCOCC2)[nH]c(-c2ccccc2)nc1=S
  EC50: 13.5 µM (inactive)

## O=C1/C(=C/c2ccc(N3CCOCC3)o2)SC(=Nc2ccccc2)N1CCc1c[nH]c2ccccc12
  EC50: 0.702 µM

## C=CCN1C(=O)/C(=C/C=C2/N(CC)c3ccc(S(=O)(=O)N(C)C)cc3N2CC)SC1=S
  EC50: > 16 µM (inactive)

## CN1CCN(C2=CC3=CC(=C(C#N)C#N)CCC3CC2)CC1 (stereo unspecified)
  EC50: 3.41 µM

## O=S(=O)(Nc1cc2nc3ccccc3nc2n1Cc1ccccc1)c1ccc(Cl)cc1
  EC50: 7.17 µM

## COc1ccc2nc(SCC(C)=O)c(C#N)cc2c1
  EC50: 8.2 µM

## CCCN1C(=O)c2cccc3c(N4CCCCC4)ccc(c23)C1=O
  EC50: > 16 µM (inactive)

## CCOC(=O)CC1C(=O)NCCN1c1nc2ccc(C)cn2c(=O)c1/C=C1\SC(=S)N(CC(C)C)C1=O (stereo unspecified)
  EC50: 6.84 µM

## Cn1cc(/C=C2\SC(=S)N(NC(=O)c3ccccc3)C2=O)c2ccccc21
  EC50: > 16 µM (inactive)

## CCCCN1C(=O)C2(NNc3ccccc3O2)c2ccccc21 (stereo unspecified)
  EC50: > 16 µM (inactive)

## N#CC1=C(N)C(C#N)(C#N)[C@H](c2ccoc2)[C@H]2CN(Cc3ccccc3)CC=C12
  EC50: 9.87 µM

## CCOC(=O)c1c(-c2ccc(C)cc2)csc1NC(=O)/C(C#N)=C/c1ccc(O)c(OC)c1
  EC50: > 16 µM (inactive)

## COc1cc(/C=C(\C#N)c2nc3ccccc3o2)ccc1O
  EC50: > 16 µM (inactive)

## CCCN1C(=O)/C(=C/C=C2\N(CC)c3ccccc3C2(C)C)SC1=S
  EC50: > 16 µM (inactive)

## Nc1c(C(=O)c2ccccc2)sc2nsc(SCCN3CCCC3)c12
  EC50: 8.41 µM

## CCN1C=CC2=C(C#N)C(N)C(C#N)(C#N)C(c3ccccc3C(F)(F)F)C2C1 (stereo unspecified)
  EC50: 4.63 µM

## O=C(N=C1SCC(=O)N1c1ccccc1Cl)c1ccccc1
  EC50: > 16 µM (inactive)

## CCCN1C(=O)/C(=C\C=C2\N(CC)c3ccccc3C2(C)C)SC1=S
  EC50: > 16 µM (inactive)

## Cc1oc(C)c2c(=O)ccc3c(c12)OC(N)=C(C#N)C3c1ccccc1 (stereo unspecified)
  EC50: > 16 µM (inactive)

## CC(C)(C)c1ccc(OCC(=O)Nc2ccc3c4c(cccc24)C(=O)NC3=O)cc1
  EC50: > 16 µM (inactive)

## Cc1c(-c2ccc(O)cc2)nc2nc(-c3ccccc3)c(-c3ccccc3)nn12
  EC50: 5.31 µM

## N#C/C(=C\N1CCN(Cc2ccc3c(c2)OCO3)CC1)c1nc2ccccc2s1
  EC50: > 16 µM (inactive)

## N#Cc1c(-c2ccco2)cc(C2CC2)nc1SCC(=O)c1ccccc1
  EC50: > 16 µM (inactive)

## CCCN1C(=O)/C(=C/c2c(N3CCNC(=O)C3CC(=O)OCC)nc3c(C)cccn3c2=O)SC1=S (stereo unspecified)
  EC50: > 16 µM (inactive)

## O=C1c2cccc3c(N4CCCCC4)ccc(c23)C(=O)N1c1ccccc1O
  EC50: > 16 µM (inactive)

## O=c1oc2cc(O)ccc2cc1-c1nc2c(s1)CCc1ccccc1-2
  EC50: 10.2 µM (inactive)

## CN1CC=C2C(C#N)=C(N)C(C#N)(C#N)[C@H](c3cccc(Cl)c3)C2C1 (stereo partly specified)
  EC50: 8.14 µM

## CC(C)(C)C(=O)c1sc2nc(-c3cccs3)cc(C(F)(F)F)c2c1N
  EC50: > 16 µM (inactive)

## CCN1CC=C2C(C#N)=C(N)C(C#N)(C#N)[C@H](c3cccc(OC)c3OC)[C@H]2C1
  EC50: 3.78 µM

## CN(C)c1ccc(/C=C2\SC(=S)N(Nc3ncc(C(F)(F)F)cc3Cl)C2=O)cc1
  EC50: 2.55 µM

## CCN(CC)c1ccc(/C=C2\SC(=O)N(C(C)C)C2=O)o1
  EC50: 4.61 µM

## Cc1cccc(NC(=O)/C=C/c2ccc([N+](=O)[O-])s2)c1
  EC50: > 16 µM (inactive)

## CCCN1CCc2c(sc(NC(=S)NC(=O)c3ccccc3)c2C#N)C1
  EC50: 7.92 µM

## COCCN1C(=O)/C(=C/c2ccc(N3CCCC3)cc2)SC1=S
  EC50: 12 µM (inactive)

## CCCN1CC=C2C(C#N)=C(N)C(C#N)(C#N)C(c3cc(OC)ccc3OC)C2C1 (stereo unspecified)
  EC50: 5.05 µM

## CCC(C)N1C(=O)/C(=C/c2c(NCCCOC(C)C)nc3c(C)cccn3c2=O)SC1=S (stereo unspecified)
  EC50: 2.83 µM

## CN(C)c1ccc(/C=C/C(=O)c2c(O)c3ccccc3oc2=O)cc1
  EC50: 0.726 µM

## CCOC(=O)/C(=C\C=C1/Sc2cc(OCC)c(OCC)cc2N1CC)C(C)=O
  EC50: 6.72 µM

## CCOC(=O)CC1C(=O)NCCN1c1nc2ccc(C)cn2c(=O)c1/C=C1\SC(=S)N(C(C)CC)C1=O (stereo unspecified)
  EC50: 0.748 µM

## Cc1nonc1NC(=O)CSc1nc2c(C)cccc2cc1C#N
  EC50: > 16 µM (inactive)

## CCOC(=O)CC1C(=O)NCCN1c1nc2c(C)cccn2c(=O)c1/C=C1\SC(=S)N(C(C)CC)C1=O (stereo unspecified)
  EC50: 7.29 µM

## N#C/C(=C/c1ccc(N2CCCCCC2)o1)c1ccc(Cl)cc1
  EC50: 10.1 µM (inactive)
